Test system: male New Zealand white rabbits
Test: Serum total cholesterol and lipoprotein fractions in rabbits after 30 days feeding
Format: in vivo, rabbit
Details: mean ± SEM
From the text: This antihyperlipidemic action is shown for an NHE inhibitor, 4-isopropyl-3-methylsulfonylbenzoylguanidine methanesulfonate (Hoe 642), in the following table, male New Zealand white rabbits (n=28) having a weight of 3-4 kg being used and divided into four groups of 7 animals in each case randomized as described below: 1) standard rabbit feed (®Altromin 2834), 2) atherogenic diet having a content of 0.25% cholesterol and 3% coconut oil, 3) standard rabbit feed+Hoe 642 (0.1%), 4) atherogenic diet+Hoe 642 (0.1%). Blood samples were taken once after 30 days feeding by puncture of the auricular artery. Serum was obtained from the blood. The total cholesterol was measured from the serum by means of the CHOD (cholesterol oxidase)-PAP method (Merckotest, Merck Diagnostics, E. Merck, 64271 Darmstadt, Germany). The separation of the lipoproteins was carried out, likewise from the serum, by FPLC (fast protein liquid chromatography) method (März et al. 1993, Clin. Chem. 39/11:2276-2281).

[1] = atherogenic diet (0.25% cholesterol, 3% coconut oil) + Hoe 642 0.1%
[2] = normal diet (standard rabbit feed) + Hoe 642 0.1%

SMILES: CC(C)c1ccc(C(=O)NC(=N)N)cc1S(C)(=O)=O [HOE 642, 4-isopropyl-3-methylsulfonylbenzoylguanidine methanesulfonate]
- LDL (serum cholesterol fraction) [1]: 2.1 ± 0.2 mmol/L
- Total cholesterol (serum) [1]: 7.95 ± 0.89 mmol/L
- VLDL (serum cholesterol fraction) [1]: 4.6 ± 0.6 mmol/L
- LDL (serum cholesterol fraction) [2]: 0.23 ± 0.04 mmol/L
- Total cholesterol (serum) [2]: 0.69 ± 0.1 mmol/L
- VLDL (serum cholesterol fraction) [2]: 0.05 ± 0.02 mmol/L

— US20040122096A1, “Use of inhibitors of the cellular Na+/H+ exchanger (NHE) for preparing a medicament for normalizing serum lipids” (Hoechst Aktiengesellschaft, priority 1996, published 2004)
